{
  "source": "patent US10857227B2",
  "about": "“Immunostimulatory compositions” (ASSISTANCE PUBLIQUE-HOPITAUX DE PARIS, priority 2015, dated 2020)",
  "tested_on": "MHC I epitope of Trp2 (VYDFFVWL)",
  "assay": "CD8 immune response to Trp2 epitope variants co-incubated with L-Dopa",
  "assay_type": "in vivo, mice",
  "conditions": "peptide 10 μg/mouse co-incubated with L-Dopa 100 μg/mouse, then mixed to CpG-28 10 μg/mouse; immunized once; day 8",
  "description": "C57-B16, 5-week old, mice were immunized twice (on day 1 and day 7) with the different formulations combined to a Toll-like Receptor 9 (TLR-9) agonist (10 μg of the CpG-28 oligonucleotide, […] (SEQ ID NO: 1)). After 2 immunizations, the CD8+immune response was evaluated on day 14 using a gamma interferon (IFNg)-secretion Elispot assay, after restimulation of total splenocytes with the relevant MHC class-1 epitope ([…] (SEQ ID NO: 2) for Ovalbumine or […] (SEQ ID NO: 3) for human gp100)\nAdding arginines (R) or lysines (K) to the NH2-terminal end of the peptides enhanced the immune response when compared to unmodified Trp2 (animals were immunized once with formulations consisting of the peptide (10 μg/mouse) co-incubated with L-Dopa (100 μg/mouse), then mixed to CpG-28 (10 μg/mouse). The CD8 immune responses were assessed on day 8).",
  "data": [
    {"sequence": "VYDFFVWL (MHC I epitope of Trp2)", "values": [
      {"measurement": "number of IFNy-secreting lymphocytes mean +/− SD", "value": "30 +/− 34"}
    ]}
  ]
}
